Measurements from patent US20240092779A1, “USP1 INHIBITORS AND USES THEREOF” (Zentaur Therapeutics USA Inc., priority 2022, published 2024).
Values after ≈ are worked out from the molar mass of the structure shown.

Tests used:
[1] = Liver microsomal stability (HLM); format: in vitro ADME; settings: human liver microsomes 0.5 mg/mL, 1 μM compound, NADPH; for microsomal CLint at 1 μM: human, liver microsomes
Description: Liver Microsomal Stability
Certain Compounds of the Disclosure were assessed for ADME metabolic stability in human liver microsomes (HLM).
Samples were prepared by adding 222.5 μL of a master solution (100 mM phosphate buffer and 0.5 mg/mL liver microsomes (HLM)) and 25 μL of a 10 mM NADPH solution to incubation plates, which were then warmed for 10 min. Each compound was separately dissolved in DMSO to prepare 10 mM stock solutions, which were then diluted to 100 μM with acetonitrile. A reaction was started by adding 2.5 μL of the […] solution of each compound to separate incubation plates such that the final concentration of for each compound in each plate was 1 μM. Aliquots of 30 μL were taken from the reaction solution at 0.5, 5, 15, 30 and 60 minutes. The reaction was stopped by the addition of 5 volumes of cold acetonitrile with IS (100 nM alprazolam, 200 nM caffeine and 100 nM tolbutamide). Aliquot of 100 μL of the supernatant was diluted by 100 μL ultra-pure water, and the mixture was used for LC/MS/MS analysis. Peak areas were determined from extracted ion chromatograms. […]. The percentage of remaining parent was calculated from peak area of test compound or PC. The slope value, k, is determined by linear regression of the natural logarithm of percent parent remaining vs. incubation time curve. All calculations are carried out using Microsoft Excel.
The in vitro half-life (in vitro t1/2) is determined from the slope value:
Conversion of the in vitro t1/2 (in min) into the in vitro intrinsic clearance (in vitro CLint, (HLM Clint (μL/min/mg proteins))) is done using the following equation: […]
A: HLM Clint <10 μL/min/mg; B: 10 μL/min/mg≤HLM Clint <50 μL/min/mg; C: HLM Clint ≥50 μL/min/mg.

[2] = Solubility in FaSSIF (Fasted State Simulated Intestinal Fluid); format: physicochemical; settings: FaSSIF pH 6.5, 25° C.; for solubility at 2 h: kinetic from dmso stock
Description: Solubility in FaSSIF (Fasted State Simulated Intestinal Fluid)
Certain Compounds of the Disclosure were assessed for the apparent solubility in FaSSIF.
0.420 g of NaOH, 3.438 g of NaH2PO4 and 6.186 g of NaCl were dissolved into about 900 mL ultrapure water. The solution was adjusted to the pH of 6.5 with 1N NaOH or 1N HCl. The solution was then diluted with ultrapure water to 1000 mL at room temperature. The resulting solution is used as buffer solution.
2.240 g of FaSSIF Powder was added to about 500 mL of above-mentioned buffer solution. The solution was stirred until powder was completely dissolved. Then the solution was diluted with buffer A to 1000 mL at room temperature. This solution is FaSSIF to be used in the following experiment.
15 μL of stock solution (10 mM) of each sample was placed into their proper 96-well rack. 485 μL of FaSSIF was added into each vial of the cap-less solubility sample plate. One stir stick was added to each vial and the vial was sealed using a molded PTFE/Silicone plug. The solubility sample plate was transferred to the Eppendorf Thermomixer Comfort plate shaker and shaked at 25° C. at 1100 RPM for 2 hours. After completion of the 2 hours, the stir sticks using a big magnet were removed. The samples from the solubility sample plate were transferred into the filter plate. Using the vacuum manifold, all the samples are filtered. Aliquot of 5 μL was taken from filtrate followed by addition of 5 μL DMSO and 490 μL of a mixture of H2O and acetonitrile containing internal standard (1:1).
3 μM Standards solution (STD) was prepared from the 10 mM DMSO STD plate.as following: transferring 6 μL into the remaining empty plate, adding 194 μL of DMSO to that plate to have a STD concentration of 300 μM. From the 300 μM DMSO STD plate, 5 μL solution was transferred into the remaining empty plate. Addition of 5 μL PBS and 490 μL of a mixture of H2O and acetonitrile containing internal standard (1:1) to that plate furnished a final STD concentration of 3 μM STD solution.
The samples are analyzed and quantified against the standard of known concentration using LC/MS/MS, calculating the solubility of the test compound as following (DF means the dilution factor):
[Sample solubility in FsSSIF (04)]=Area Ratio sample×DF sample×[STD]/Area Ratio STD

## COc1cc(Cn2c(=O)cnc3cnc(-c4c(OC)ncnc4C4CC4)nc32)ccc1-n1nc(C(F)(F)F)cc1OC [Compound I-123]
[1]
  microsomal CLint at 1 μM: 10 to 50 µL/min/mg
[2]
  solubility at 2 h: ≥ 100 µM

## COc1cc(Cn2c(=O)cnc3cnc(-c4c(OC)ncnc4C4CC4)nc32)ccc1-c1nc(C(F)(F)F)cn1C(C)C [Compound I-118]
[1]
  microsomal CLint at 1 μM: 10 to 50 µL/min/mg
[2]
  solubility at 2 h: ≥ 100 µM

## COc1ncnc(C2CC2)c1-c1ncc2cc(-c3c(C)nn(C)c3C)c(=O)n(Cc3ccc(-c4nc(C(F)(F)F)cn4C4CC4)cc3)c2n1 [Compound I-129]
[1]
  microsomal CLint at 1 μM: 10 to 50 µL/min/mg
[2]
  solubility at 2 h: ≥ 100 µM

## COCCN1CCC(c2cc3cnc(-c4c(OC)ncnc4C4CC4)nc3n(Cc3ccc(-c4nc(C(F)(F)F)cn4C4CC4)cc3)c2=O)CC1 [Compound I-120]
[1]
  microsomal CLint at 1 μM: < 10 µL/min/mg
[2]
  solubility at 2 h: ≥ 100 µM

## COc1cc(Cn2c(=O)ccc3cnc(-c4c(OC)ncnc4C4CC4)c(F)c32)ccc1-c1nc(C(F)(F)F)cn1C1CC1 [Compound I-126]
[1]
  microsomal CLint at 1 μM: 10 to 50 µL/min/mg
[2]
  solubility at 2 h: 10 to 100 µM (≈ 6.07 to 60.7 µg/mL)

## COc1ncnc(C2CC2)c1-c1ncc2ccc(=O)n(Cc3ccc(-c4nc(C(F)(F)F)cn4C(C)C)c(F)c3OC)c2n1 [Compound I-23, 2-(4-cyclopropyl-6-methoxypyrimidin-5-yl)-8-({3-fluoro-4-[1-isopropyl-4-(trifluoromethyl)imidazol-2-yl]-2-methoxyphenyl}methyl)pyrido[2,3-d]pyrimidin-7-one]
[1]
  microsomal CLint at 1 μM: 10 to 50 µL/min/mg
[2]
  solubility at 2 h: < 10 µM

## COc1ncnc(C2CC2)c1-c1ncc2cc(-c3cnn(C)c3)c(=O)n(Cc3ccc(-c4nc(C(F)(F)F)cn4C4CC4)cc3)c2n1 [Compound I-127]
[1]
  microsomal CLint at 1 μM: < 10 µL/min/mg
[2]
  solubility at 2 h: ≥ 100 µM

## COc1ncnc(C2CC2)c1-c1ncc2cc(-c3cnn(C4CN(C)C4)c3)c(=O)n(Cc3ccc(-c4nc(C(F)(F)F)cn4C4CC4)cc3)c2n1 [Compound I-137]
[1]
  microsomal CLint at 1 μM: 10 to 50 µL/min/mg
[2]
  solubility at 2 h: ≥ 100 µM

## COc1cc(Cn2c(=O)ccc3cnc(-c4c(OC)ncnc4OC)nc32)cc(F)c1-c1nc(C(F)(F)F)cn1C(C)C [Compound I-113]
[1]
  microsomal CLint at 1 μM: 10 to 50 µL/min/mg
[2]
  solubility at 2 h: 10 to 100 µM (≈ 6 to 60 µg/mL)

## COc1cc(Cn2c(=O)ccc3cnc(-c4c(OC)ncnc4C4CC4)nc32)cc(F)c1-c1nc(C(F)(F)F)cn1C(C)C [Compound I-22, 2-(4-cyclopropyl-6-methoxypyrimidin-5-yl)-8-({3-fluoro-4-[1-isopropyl-4-(trifluoromethyl)imidazol-2-yl]-5-methoxyphenyl}methyl)pyrido[2,3-d]pyrimidin-7-one]
[1]
  microsomal CLint at 1 μM: 10 to 50 µL/min/mg
[2]
  solubility at 2 h: ≥ 100 µM

## COc1ncnc(C2CC2)c1-c1ncc2cc(-c3cnn(C)c3)c(=O)n(Cc3ccc(-c4nc(C(F)(F)F)cn4C)cc3)c2n1 [Compound I-64]
[1]
  microsomal CLint at 1 μM: < 10 µL/min/mg
[2]
  solubility at 2 h: < 10 µM

## O=c1ccc2cnc(-c3c(OC(F)F)ncnc3C3CC3)nc2n1Cc1ccc(-c2nc(C(F)(F)F)cn2C2CC2)cc1 [Compound I-103]
[1]
  microsomal CLint at 1 μM: < 10 µL/min/mg
[2]
  solubility at 2 h: < 10 µM

## COc1ncnc(C2CC2)c1-c1ncc2ccc(=O)n(Cc3ccc(-n4nc(C(F)(F)F)cc4C)cc3)c2n1 [Compound I-8, 2-(4-cyclopropyl-6-methoxypyrimidin-5-yl)-8-({4-[5-methyl-3-(trifluoromethyl)pyrazol-1-yl]phenyl}methyl)pyrido[2,3-d]pyrimidin-7-one]
[1]
  microsomal CLint at 1 μM: 10 to 50 µL/min/mg
[2]
  solubility at 2 h: ≥ 100 µM

## COc1cc(Cn2c(=O)ccc3cnc(-c4c(OC)ncnc4C4CC4)nc32)ccc1-c1nc(C(F)(F)F)cn1C1CC1 [Compound I-124]
[1]
  microsomal CLint at 1 μM: < 10 µL/min/mg
[2]
  solubility at 2 h: 10 to 100 µM (≈ 5.9 to 59 µg/mL)

## COc1ncnc(C2CC2)c1-c1ncc2cc(-c3cnn(CCO)c3)c(=O)n(Cc3ccc(-c4nc(C(F)(F)F)cn4C4CC4)cc3)c2n1 [Compound I-131]
[1]
  microsomal CLint at 1 μM: < 10 µL/min/mg
[2]
  solubility at 2 h: ≥ 100 µM

## COc1ncnc(C2CC2)c1-c1ncc2cc(C(C)(C)O)c(=O)n(Cc3ccc(-c4nc(C(F)(F)F)cn4C4CC4)cc3)c2n1 [Compound I-109]
[1]
  microsomal CLint at 1 μM: < 10 µL/min/mg
[2]
  solubility at 2 h: ≥ 100 µM

## COc1cc(Cn2c(=O)cnc3cnc(-c4c(OC)ncnc4C4CC4)nc32)ccc1-c1nc(C(F)(F)F)cn1C(C)C [Compound I-119]
[1]
  HLM Clint (μL/min/mg): A (HLM Clint <10 μL/min/mg)
[2]; 2 hours
  Solubility in FaSSIF(μM): C (Solubility ≥100 μN)

## COc1ncnc(C2CC2)c1-c1ncc2cc(-c3cnn(C4CCN(C)CC4)c3)c(=O)n(Cc3ccc(-c4nc(C(F)(F)F)cn4C4CC4)cc3)c2n1 [Compound I-143]
[1]
  microsomal CLint at 1 μM: 10 to 50 µL/min/mg
[2]
  solubility at 2 h: ≥ 100 µM

## COc1ncnc(C2CC2)c1-c1ncc2cc(-c3ncccn3)c(=O)n(Cc3ccc(-c4nc(C(F)(F)F)cn4C4CC4)cc3)c2n1 [Compound I-145]
[1]
  microsomal CLint at 1 μM: < 10 µL/min/mg
[2]
  solubility at 2 h: ≥ 100 µM

## COc1ncnc(C2CC2)c1-c1ncc2cc(-c3cnn(C)c3)c(=O)n(Cc3ccc(-c4nc(C(F)(F)F)cn4C(C)C)cc3)c2n1 [Compound I-138]
[1]
  microsomal CLint at 1 μM: < 10 µL/min/mg
[2]
  solubility at 2 h: ≥ 100 µM

## COc1ncnc(C2CC2)c1-c1ncc2cc(C3=CCN(C)CC3)c(=O)n(Cc3ccc(-c4nc(C(F)(F)F)cn4C(C)C)cc3)c2n1 [Compound I-106]
[1]
  microsomal CLint at 1 μM: < 10 µL/min/mg
[2]
  solubility at 2 h: ≥ 100 µM

## COc1ncnc(C2CC2)c1-c1ncc2cc(-c3cn[nH]c3)c(=O)n(Cc3ccc(-c4nc(C(F)(F)F)cn4C4CC4)cc3)c2n1 [Compound I-130]
[1]
  microsomal CLint at 1 μM: < 10 µL/min/mg
[2]
  solubility at 2 h: ≥ 100 µM

## COc1ncnc(C2CC2)c1-c1ncc2ccc(=O)n(Cc3ccc(-n4nc(C(F)(F)F)cc4OC)cc3)c2n1 [Compound I-110]
[1]
  microsomal CLint at 1 μM: < 10 µL/min/mg
[2]
  solubility at 2 h: < 10 µM

## COc1cc(Cn2c(=O)ccc3cnc(-c4c(OC)ncnc4C4CC4)nc32)cc(F)c1-c1nc(C(F)(F)F)cn1C1CC1 [Compound I-53]
[1]
  microsomal CLint at 1 μM: 10 to 50 µL/min/mg
[2]
  solubility at 2 h: ≥ 100 µM

## COc1ncnc(C2CC2)c1-c1ncc2cc(-c3cnn(CCN(C)C)c3)c(=O)n(Cc3ccc(-c4nc(C(F)(F)F)cn4C4CC4)cc3)c2n1 [Compound I-132]
[1]
  microsomal CLint at 1 μM: 10 to 50 µL/min/mg
[2]
  solubility at 2 h: ≥ 100 µM

## COc1cc(Cn2c(=O)ccc3cnc(-c4c(OC)ncnc4C4CC4)nc32)ccc1-n1nc(C(F)(F)F)cc1OC [Compound I-122]
[1]
  microsomal CLint at 1 μM: < 10 µL/min/mg
[2]
  solubility at 2 h: 10 to 100 µM (≈ 5.8 to 58 µg/mL)

## COc1cc(Cn2c(=O)cnc3cnc(-c4c(OC)ncnc4C4CC4)nc32)ccc1-c1nc(C(F)(F)F)cn1C1CC1 [Compound I-125]
[1]
  microsomal CLint at 1 μM: 10 to 50 µL/min/mg
[2]
  solubility at 2 h: ≥ 100 µM

## COc1ncnc(C2CC2)c1-c1ncc2nc(N3CCN(C)CC3)c(=O)n(Cc3ccc(-c4nc(C(F)(F)F)cn4C4CC4)cc3)c2n1 [Compound I-97]
[1]
  microsomal CLint at 1 μM: 10 to 50 µL/min/mg
[2]
  solubility at 2 h: ≥ 100 µM

## COc1cc(Cn2c(=O)cnc3cnc(-c4c(OC)ncnc4C4CC4)nc32)cc(F)c1-c1nc(C(F)(F)F)cn1C(C)C [Compound I-107]
[1]
  microsomal CLint at 1 μM: < 10 µL/min/mg
[2]
  solubility at 2 h: ≥ 100 µM

## COc1ncnc(C2CC2)c1-c1ncc2cc(-c3cn(C)c(C)n3)c(=O)n(Cc3ccc(-c4nc(C(F)(F)F)cn4C4CC4)cc3)c2n1 [Compound I-144]
[1]
  microsomal CLint at 1 μM: 10 to 50 µL/min/mg
[2]
  solubility at 2 h: < 10 µM

## COc1ncnc(C2CC2)c1-c1ncc2cc(-c3cccnc3)c(=O)n(Cc3ccc(-c4nc(C(F)(F)F)cn4C4CC4)cc3)c2n1 [Compound I-139]
[1]
  microsomal CLint at 1 μM: < 10 µL/min/mg
[2]
  solubility at 2 h: ≥ 100 µM
